Consider ten compounds from paper PMC9040055, “Triterpenes from Pholiota populnea as Cytotoxic Agents and Chemosensitizers to Overcome Multidrug Resistance of Cancer Cells” (Journal of Natural Products, 2022).

Each structure is given as a SMILES string. Entries after “also recorded” stand apart in the source; their conditions may differ. Read-outs that look alike come from different tables or passages of the source. A value given as a limit tells only on which side of the number the result lay.

For data set [1], the system named is sensitive (Colo 205) human colon adenocarcinoma cells. Also noted: method as in PMID 33809760. The note with it: sensitive Colo 205 cells; cited from earlier work.
Data set [2] deals with resistant (Colo 320) human colon adenocarcinoma cells. Further details: method as in PMID 33809760. Conditions: resistant Colo 320 cells; cited from earlier work.
Data set [3] concerns Colo 205 doxorubicin-sensitive colon adenocarcinoma cells. Kind of data set: MTT assay for cytotoxic effect, Colo 205. The format is cell-based, human. The note with it: 24 h incubation, triplicate, read-out: Colo205 (IC50 μM) mean. The protocol:
(§1) The human colon adenocarcinoma cell lines, the Colo 205 (ATCC-CCL-222) doxorubicin-sensitive parent and Colo 320/MDR-LRP (ATCC-CCL-220.1) resistant to anticancer agents expressing ABCB1, were purchased from LGC Promochem (Teddington, UK). […] The cell lines were incubated in a humidified atmosphere (5% CO2, 95% air) at 37 °C. The effects of increasing concentrations of the compounds on cell growth were tested in 96-well flat-bottomed microtiter plates. The 2-fold serial dilutions of the tested compounds were made starting with 100 μM. Then, 10^4 human colonic adenocarcinoma cells in 100 μL of the medium (RPMI-1640) were added to each well, except for the medium control wells. The adherent human embryonic lung fibroblast cell line (10^4/well) was seeded in EMEM medium in 96-well flat-bottomed microtiter plates for 4 h before the assay. The serial dilutions of the compounds were made in a separate plate starting with 100 μM and then transferred to the plates containing the adherent corresponding cell line. Culture plates were incubated at 37 °C for 24 h; at the end of the incubation period, 20 μL of MTT (thiazolyl blue tetrazolium bromide) solution (from a 5 mg/mL stock solution) was added to each well. After incubation at 37 °C for 4 h, 100 μL of sodium dodecyl sulfate (SDS) solution (10% SDS in 0.01 M HCl) was added to each well, and the plates were further incubated at 37 °C overnight. Cell growth was determined by measuring the optical density (OD) at 540 nm (ref 630 nm) with a Multiscan EX ELISA reader (Thermo Labsystems, Cheshire, WA, USA). […] IC50 values and the SD of triplicate experiments were calculated by using GraphPad Prism software version 5.00 for Windows with nonlinear regression curve fit (GraphPad Software, San Diego, CA, USA; www.graphpad.com).

The test system of data set [4] is Colo 320/MDR-LRP resistant colon adenocarcinoma cells. Kind of data set: MTT assay for cytotoxic effect, Colo 320. The format is cell-based, human. Conditions: 24 h incubation, triplicate, read-out: Colo320 (IC50 μM) mean. The protocol: as §1
Data set [5] in a line: MTT assay for cytotoxic effect, MRC-5. The format is cell-based, human. Conditions: human. Here is the method: as §1
The target in data set [6] is P-glycoprotein (ABCB1) in MDR Colo 320 cells (Homo sapiens, UniProt P08183). Kind of data set: Rhodamine 123 accumulation assay (P-gp efflux pump inhibition). The format is cell-based. The protocol: The inhibitory activities of compounds 1–3, 5, and 6 on efflux function were evaluated by measuring the intracellular accumulation of rhodamine 123, a well-known P-glycoprotein substrate fluorescent dye, within the Colo320 MDR cells. Tariquidar, a strong P-gp inhibitor, was used as positive control. All tested compounds were dissolved in DMSO, and the final concentration (2.00%) of the solvent was investigated for any effect on the retention of rhodamine 123. […] The cell numbers of the human colon adenocarcinoma cell lines were adjusted to 2 × 10^6 cells/mL, resuspended in serum-free RPMI 1640 medium, and distributed in 0.5 mL aliquots into Eppendorf centrifuge tubes. […] DMSO at 2% v/v was used as solvent control. Next, 10 μL (5.2 μM final concentration) of the fluorochrome and ABCB1 substrate rhodamine 123 (Sigma) were added to the samples, and the cells were incubated for a further 20 min at 37 °C, washed twice, and resuspended in 1 mL of PBS for analysis. The fluorescence of the cell population was measured with a PartecCyFlow flow cytometer (Partec, Münster, Germany). The FAR was calculated as the quotient between FL-1 of the treated/untreated resistant Colo 320 cell line over the treated/untreated sensitive Colo 205 cell line according to the following equation: [drawing 2]
Sequence of P-glycoprotein (ABCB1) in MDR Colo 320 cells (P08183 whole entry): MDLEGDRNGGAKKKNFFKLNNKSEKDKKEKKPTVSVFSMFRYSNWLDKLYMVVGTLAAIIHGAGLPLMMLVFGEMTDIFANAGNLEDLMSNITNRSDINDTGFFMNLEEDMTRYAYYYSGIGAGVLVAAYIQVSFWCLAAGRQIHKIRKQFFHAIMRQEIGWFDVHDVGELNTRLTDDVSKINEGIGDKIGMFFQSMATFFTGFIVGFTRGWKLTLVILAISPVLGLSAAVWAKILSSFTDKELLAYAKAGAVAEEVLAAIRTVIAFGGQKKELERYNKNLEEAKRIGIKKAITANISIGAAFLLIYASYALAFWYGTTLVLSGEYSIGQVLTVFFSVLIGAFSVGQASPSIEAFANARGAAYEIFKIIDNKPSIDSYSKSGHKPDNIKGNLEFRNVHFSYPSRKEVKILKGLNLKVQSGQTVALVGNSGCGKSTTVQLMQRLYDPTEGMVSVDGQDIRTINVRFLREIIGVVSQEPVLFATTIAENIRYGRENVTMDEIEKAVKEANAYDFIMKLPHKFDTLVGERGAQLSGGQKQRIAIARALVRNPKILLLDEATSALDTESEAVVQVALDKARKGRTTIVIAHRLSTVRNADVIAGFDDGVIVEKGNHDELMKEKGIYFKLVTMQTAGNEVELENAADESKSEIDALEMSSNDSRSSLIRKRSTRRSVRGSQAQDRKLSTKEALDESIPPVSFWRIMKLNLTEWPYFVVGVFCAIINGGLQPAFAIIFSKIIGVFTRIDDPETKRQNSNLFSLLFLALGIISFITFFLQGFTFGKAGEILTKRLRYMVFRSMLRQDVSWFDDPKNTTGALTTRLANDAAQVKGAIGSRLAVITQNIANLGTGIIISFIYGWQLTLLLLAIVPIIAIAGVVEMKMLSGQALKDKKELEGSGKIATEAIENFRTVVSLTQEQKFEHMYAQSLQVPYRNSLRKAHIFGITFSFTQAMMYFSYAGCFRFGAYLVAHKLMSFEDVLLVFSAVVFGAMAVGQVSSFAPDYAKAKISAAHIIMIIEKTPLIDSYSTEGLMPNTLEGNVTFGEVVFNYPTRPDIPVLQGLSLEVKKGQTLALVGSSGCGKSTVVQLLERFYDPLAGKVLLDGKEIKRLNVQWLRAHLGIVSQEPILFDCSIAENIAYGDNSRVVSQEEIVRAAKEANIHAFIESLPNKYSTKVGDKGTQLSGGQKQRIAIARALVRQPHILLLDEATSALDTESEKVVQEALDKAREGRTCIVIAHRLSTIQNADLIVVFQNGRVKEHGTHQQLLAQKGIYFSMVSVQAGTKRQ

The test system of data set [7] is MRC-5 embryonic lung fibroblast cell line. Kind of data set: MTT assay for cytotoxic effect, MRC-5. The format is cell-based, human. Conditions: MTT, 24 h incubation, triplicate. Here is the method:
as §1

For data set [8], the system named is Colo 320 colon adenocarcinoma cell line. Kind of data set: Checkerboard combination assay with doxorubicin. The format is cell-based, human. Conditions: for interaction (type of interaction with doxorubicin): Colo 320, based on combination indices; for CI at ED50 (combination index value at the 50% growth inhibition dose): with doxorubicin, Colo 320, 72 h, at best ratio. Here is the method:
A checkerboard microplate combination assay was performed, which is a widely used in vitro method for the assessment of drug interactions. […] The assay was carried out on the Colo 320 colon adenocarcinoma cell line. The final concentration of the compounds and doxorubicin used in the combination experiment was chosen in accordance with their cytotoxicity toward this cell line. The dilutions of doxorubicin were made in a horizontal direction in 100 μL, and the dilutions of the compounds vertically in the microtiter plate in a 50 μL volume. Then, 6 × 10^3 of Colo 320 cells in 50 μL of the medium were added to each well, except for the medium control wells. The plates were incubated for 72 h at 37 °C in a 5% CO2 atmosphere. The cell growth rate was determined after MTT staining. At the end of the incubation period, 20 μL of MTT solution (from a stock solution of 5 mg/mL) was added to each well. After incubation at 37 °C for 4 h, 100 μL of SDS solution (10% in 0.01 M HCI) was added to each well, and the plates were further incubated at 37 °C overnight. OD was measured at 540 nm (ref 630 nm) with a Multiscan EX ELISA reader.

In data set [9] the test system is panel of 71 human cancer cells from 15 tumor types. Also noted: method as in PMID 29931585. Conditions: against 27 cell lines of a panel of 71 human cancer cells; read-out: cytotoxicity IC50; cited from earlier work.
Where [10] appears, read: MRC-5 embryonic lung fibroblast cells, MTT, 24 h incubation, triplicate, read-out: MRC-5 (IC50 μM) mean.

Take `CC(C)[C@@H](C)C=C[C@@H](C)[C@H]1CC[C@H]2C3=CCC4CC(=O)CC[C@]4(C)[C@H]3CC[C@]12C` (stereo partly shown) [ergosta-7,22-diene-3-one]: the values for the 50% inhibitory concentration (IC50) in data set [1] and in [2] were 11.6 ± 1.7 µM and 8.4 ± 1.1 µM, respectively.
For the compound `CC(=O)O[C@H]1[C@H](OC(=O)C[C@](C)(O)CC(=O)O)C[C@]2(C)C3=C(C(=O)C[C@H]2C1(C)C)[C@]1(C)CC[C@H]([C@H](C)CCC(=O)C(C)(C)O)[C@@]1(C)CC3` [compound 1, pholiol A], in [3] (Homo sapiens, COLO 205, 24 h), the half-inhibitory concentration (IC50) was greater than 100 µM. Also, the half-maximal inhibitory concentration (IC50) in data set [4] (Homo sapiens, COLO 320, 24 h) is greater than 100 µM. In data set [5] (MRC-5 (IC50 μM) mean), this compound gave a 50% inhibitory concentration (IC50) at 24 h greater than 100 µM. In data set [6] (human, 20 min, 20 μM), the “FAR (fluorescence activity ratio)” value was 3.418, the FL-1 is 39.600 and the “Peak Ch” value is 42.200.
Turning to `C/C(=C\CC/C=C(\C)CC/C=C(\C)CC[C@H](O)C(C)(C)O)CC/C=C(\C)CC[C@H](O)C(C)(C)O` [compound 5, (3S,6E,10E,14E,18E,22S)-2,3,22,23-tetrahydroxy-2,6,10,15,19,23-hexamethyl-6,10,14,18-tetracosatetraene], the half-inhibitory concentration (IC50) in data set [3] was greater than 25 µM; in [3] (Homo sapiens, COLO 205, 24 h) it was 26.7 µM; in [4], greater than 25 µM; in data set [4] (Homo sapiens, COLO 320, 24 h), 27.5 µM; in data set [7], greater than 25 µM. Further, the concentration for half-maximal inhibition (IC50) at 24 h in data set [5] (setting [10]) came out at 29.1 µM. Besides, the results for the “interaction (type of interaction with doxorubicin)” value (shortened to “interaction”) in [8] and in data set [8] (listed as compound 5) were “very strong synergistic; also recorded: synergistic” and “very strong synergism”, respectively. Besides, the “CI at ED50 (combination index value at the 50% growth inhibition dose)” value in [8] stood at 0.082. In addition, the “FAR (fluorescence activity ratio)” value in data set [6] (conc. 20 μM, rhodamine 123, Colo 320 vs Colo 205) was 6.638. For the same compound, in data set [6] (resistant Colo320 cells, rhodamine 123 accumulation), the “P-gp MDR efflux pump inhibitory activity (in words)” value is “inhibition of P-gp MDR efflux pump activity; also recorded: capacity to inhibit the efflux-pump; also recorded: moderate P-gp inhibitory activity”.
`COc1cccc2c1C(=O)c1c(O)c3c(c(O)c1C2=O)C[C@@](O)(C(=O)CO)C[C@@H]3O[C@H]1C[C@H](N)[C@H](O)[C@H](C)O1` [doxorubicin, reference compound]: the results for the IC50 in data set [3] and in data set [4] were 2.5 µM and 7.4 µM, respectively. In addition, in [5] (setting [10]), the IC50 at 24 h was greater than 20 µM.
Turning to `COc1cc2c(cc1OC)CN(CCc1ccc(NC(=O)c3cc(OC)c(OC)cc3NC(=O)c3cnc4ccccc4c3)cc1)CC2` [tariquidar, reference compound], in data set [6] (conc. 0.2 μM, positive control, rhodamine 123), the “FAR (fluorescence activity ratio)” value is 5.533.
As to `COC(=O)C[C@@](C)(O)CC(=O)O[C@@H]1C[C@]2(C)C3=C(C(=O)C[C@H]2C(C)(C)[C@H]1OC(C)=O)[C@]1(C)CC[C@H]([C@H](C)CCC(=O)C(C)(C)O)[C@@]1(C)CC3` [compound 2, pholiol B], the IC50 in data set [3] (listed as Pholiol B (2)) is 67.9 µM; in data set [3], greater than 25 µM; in [4] (listed as Pholiol B (2)) it was 61.5 µM; in data set [4], greater than 25 µM. Moreover, the “interaction” value in [8] is recorded as “synergistic”; in data set [8] (listed as pholiol B (2)), “synergism”. Moreover, the “CI at ED50 (combination index value at the 50% growth inhibition dose)” value in data set [8] stood at 0.348. The “FAR (fluorescence activity ratio)” value in data set [6] (human, 20 min, 20 μM) is reported as 6.880. The FL-1 in data set [6] (human, 20 min, 20 μM) turned out to be 79.700. The “Peak Ch” value in data set [6] (human, 20 min, 20 μM) stood at 77.700.
On to `COC(=O)C[C@@](C)(O)CC(=O)O[C@@H]1C[C@]2(C)C3=C(CC[C@H]2C(C)(C)[C@H]1OC(C)=O)[C@]1(C)CC[C@H]([C@H](C)CCC(=O)C(C)(C)O)[C@@]1(C)[C@H](O)C3` [compound 4, pholiol D], for which the IC50 in data set [3] (listed as Pholiol D (4)) is 51.4 µM; in [3] it was greater than 25 µM; in data set [4], greater than 25 µM; in data set [4] (Homo sapiens, COLO 320, 24 h), 48.9 µM. Also, the figures for the “interaction” value in data set [8] and in data set [8] (listed as pholiol D (4)) were “synergistic” and “Synergism”, respectively. Besides, in data set [8], the “CI at ED50 (combination index value at the 50% growth inhibition dose)” value is listed as 0.660.
On to `CC(=O)O[C@H]1[C@H](OC(=O)C[C@](C)(O)CC(=O)O)C[C@]2(C)C3=C(CC[C@H]2C1(C)C)[C@]1(C)CC[C@H]([C@H](C)CCC(=O)C(C)(C)O)[C@@]1(C)[C@H](O)C3` [compound 3, pholiol C], for which, in [3] (Homo sapiens, COLO 205, 24 h), the IC50 was greater than 100 µM. The IC50 in data set [4] (Homo sapiens, COLO 320, 24 h) was greater than 100 µM. Also, in data set [5] (MRC-5 (IC50 μM) mean), the IC50 at 24 h was greater than 100 µM. Further, in [6] (human, 20 min, 20 μM), the “FAR (fluorescence activity ratio)” value is on record as 0.967, the FL-1 stood at 11.200 and the “Peak Ch” value is given as 18.400.
For the compound `CC(C)[C@@H](C)/C=C/[C@@H](C)[C@H]1CC[C@H]2C3=CC=C4C[C@@H](O)CC[C@]4(C)[C@H]3CC[C@]12C` [compound 6, ergosterol], in data set [5] (MRC-5 (IC50 μM) mean), the IC50 at 24 h was 0.5 µM. In addition, the “interaction” value in [8] (listed as ergosterol (6)) is “additive effect; also recorded: nearly additive”.
`CC(C)=CCC[C@@H](C)[C@@H]1CC[C@]2(C)C3=C(CC[C@@]12C)[C@@]1(C)CC[C@H](O)C(C)(C)[C@@H]1CC3` [euphol]: in data set [9], the half-inhibitory concentration (IC50) was less than 10 µM.
